Data: patent US7524646B2 (priority 2001, dated 2009)

What was measured:
[1] = tested on: strain PS2449 (mutated gene ileS ala11, plasmid pTLH33); type: cell-based, E. coli; settings: 0.1 ml of 25 mM amino acid in central well, 37 degrees, 24 hours
Procedure: (§1) Strains PS2306 and PS2449 are tested for their sensitivity to artificial amino acids which present a steric resemblance to isoleucine. The cells are cultivated in MS mineral medium, succinate (0.2%), arabinose (0.2%) for 24 h at 37 degrees centigrade and diluted at 1/250in MS mineral medium. 0.5 ml of this cell suspension are spread on a Petri dish containing 25 ml of MS medium supplemented with succinate (0.2%) and arabinose (0.2%). A well is then prepared in the middle of the dish and filled with 0.1 ml of an amino acid solution: • 1) 25 mM S-methyl cysteine • 2) 25 mM homocysteine • 3) 25 mM o-methyl-L-serine • 4) 25 mM Norleucine • 5) 25 mM Norvaline
(§2) The Petri dishes are then incubated at 37 degrees centigrade for 24 hours and the appearance of a zone of inhibition around the well is recorded. The diameters of the zones of attenuated growth are measured as follows: […]

[2] = tested on: strain PS2306 (wild type ileS gene, plasmid pVDC433); type: cell-based, E. coli; settings: 0.1 ml of 25 mM amino acid in central well, 37 degrees, 24 hours
Procedure: as §1, §2

[^3H]Thr-tRNAval = Deacylation of mischarged Thr-tRNAVal by ValRS enzymes; type: biochemical, E. coli; settings: 2 nM enzyme, room temperature
Procedure: FIG. 5B: Histogram representation of the inhibition zone diameters of DvalS::kanR strains harboring each of the ValRS editing mutants on plasmid in response to exogenous Abu. Effects range from mild to severe. Histogram representation of the percentage of mischarged Thr-tRNAVal remaining after incubation with 2 nM enzyme for 15 minutes at room temperature. Both show a distinct range in the severity of editing defects caused by these point mutations. Taken together this illustrates a correlation between the ability of the mutant enzyme to deacylate mischarged amino acids from tRNAVal in vitro and the degree of in vivo toxicity.
(§3) Misacylation of Thr onto tRNAval was performed in the same conditions except 5.86 μM [^3H]Thr was substituted forVal in the reaction. To test deacylation rates for these enzymes it was necessary to generate [^3H]Thr-tRNAval. […] Enzyme was incubated with 2.5 μM tRNAval and 45 uM [^3H]Thr, incubated at 37 C. for 45 minutes, extracted twice in phenol:chloroform, and ethanol precipitated. Pellet was dissolved in 100 μL sterile H2O and scintillation counting was used to determine the success of the reaction. Deacylation reactions, done in triplicate for each enzyme, were performed in 155 mM Tris-HCl (pH 7.5), 100 μg/ml BSA, 10 mM MgCl2. At room temperature 2 nM enzyme was combined with [^3H]Thr-tRNAval, at 3, 6, 9, 16, and 30 minutes aliquots (9 μL) of the reaction mixture were precipitated with tricholoracetic acid, and the amount of misaminoacylated [^3H]Thr-tRNAval remaining in the sample was determined by scintillation counting. A no enzyme control reaction was included to provide reference point.

tRNA^Val = assay: Misacylation of tRNAVal with Thr; type: biochemical, E. coli; settings: pH 7.5, 37° C.
Procedure: FIG. 2B: A graph showing misaminoacylation of tRNA^Val with Thr by the T222P mutant enzyme at pH 7.5 and 37° C. The wild-type (WT) and mutant alleles were cloned under the control of a PBAD promoter (30). The enzymes were partially purified from a laboratory strain lacking the chromosomal copy of the valS gene (ΔvalS::kan+). The purification and aminoacylation procedures were adapted from Hendrickson et al. (31). (Main panel) Misaminoacylation of tRNA^Val with Thr by the two enzymes. (Inset) Aminoacylation of tRNA^Val with Val by the two enzymes.
Aminoaclyation Assay, Misacylation, and Deacylation: Aminoacylation assays were performed at 37 C. in a 100 uL volume containing buffer (20 mM HEPES, 0.1 mM EDTA disodium salt, 0.15M NH4Cl, 10 ug/mL BSA pH 7.5), […] MgCl2, 0.7 μM [^3H]Val, 20 μM cold Val, 2 μM tRNAval (Sigma) and 20 nM ValRS enzyme (adapted from Hendrickson et al. 2000). Aliquots (10 μL) of the reaction mixture were precipitated with tricholoracetic acid, and the level of aminoacylation of the tRNA was determined by scintillation counting.
as §3

| Molecule | diameters of the zones of attenuated growth [1] [cm] | diameters of the zones of attenuated growth [2] [cm] | deacylation of Thr-tRNA^Val in vitro ([^3H]Thr-tRNAval) | misacylation of tRNA^Val with Thr (tRNA^Val) |
| --- | --- | --- | --- | --- |
| N[C@@H](CCS)C(=O)O [Homocysteine] | 2.9 | 2.1 | – | – |
| CCCC[C@H](N)C(=O)O [Norleucin, Norleucine] | 3.4 | 2.9 | – | – |
| CCC[C@H](N)C(=O)O [Norvaline] | 8.0 | 3.7 | – | – |
| COC[C@H](N)C(=O)O [O-methyl-L-serine] | 5.6 | 2.2 | – | – |
| CSC[C@H](N)C(=O)O [S-methyl-L-cysteine] | 3.0 | 1.3 | – | – |
| K277Q: ValRS of E. coli with single substitution K277Q in the editing domain (protein, UniProt P07118 1-951, looked up, variant K277Q) Valine--tRNA ligase: MEKTYNPQDIEQPLYEHWEKQGYFKPNGDESQESFCIMIPPPNVTGSLHMGHAFQQTIMDTMIRYQRMQGKNTLWQVGTDHAGIATQMVVERKIAAEEGKTRHDYGREAFIDKIWEWKAESGGTITRQMRRLGNSVDWERERFTMDEGLSNAVKEVFVRLYKEDLIYRGKRLVNWDPKLRTAISDLEVENRESKGSMWHIRYPLADGAKTADGKDYLVVATTRPETLLGDTGVAVNPEDPRYKDLIGKYVILPLVNRRIPIVGDEHADMEKGTGCVQITPAHDFNDYEVGKRHALPMINILTFDGDIRESAQVFDTKGNESDVYSSEIPAEFQKLERFAARKAVVAAVDALGLLEEIKPHDLTVPYGDRGGVVIEPMLTDQWYVRADVLAKPAVEAVENGDIQFVPKQYENMYFSWMRDIQDWCISRQLWWGHRIPAWYDEAGNVYVGRNEDEVRKENNLGADVVLRQDEDVLDTWFSSALWTFSTLGWPENTDALRQFHPTSVMVSGFDIIFFWIARMIMMTMHFIKDENGKPQVPFHTVYMTGLIRDDEGQKMSKSKGNVIDPLDMVDGISLPELLEKRTGNMMQPQLADKIRKRTEKQFPNGIEPHGTDALRFTLAALASTGRDINWDMKRLEGYRNFCNKLWNASRFVLMNTEGQDCGFNGGEMTLSLADRWILAEFNQTIKAYREALDSFRFDIAAGILYEFTWNQFCDWYLELTKPVMNGGTEAELRGTRHTLVTVLEGLLRLAHPIIPFITETIWQRVKVLCGITADTIMLQPFPQYDASQVDEAALADTEWLKQAIVAVRNIRAEMNIAPGKPLELLLRGCSADAERRVNENRGFLQTLARLESITVLPADDKGPVSVTKIIDGAELLIPMAGLINKEDELARLAKEVAKIEGEISRIENKLANEGFVARAPEAVIAKEREKLEGYAEAKAKLIEQQAVIAAL | – | – | most severe defects | high levels of mischarged Thr-tRNA^Val |
| D230N: ValRS of E. coli with single substitution D230N in the editing domain (protein, UniProt P07118 1-951, looked up, variant D230N) Valine--tRNA ligase: MEKTYNPQDIEQPLYEHWEKQGYFKPNGDESQESFCIMIPPPNVTGSLHMGHAFQQTIMDTMIRYQRMQGKNTLWQVGTDHAGIATQMVVERKIAAEEGKTRHDYGREAFIDKIWEWKAESGGTITRQMRRLGNSVDWERERFTMDEGLSNAVKEVFVRLYKEDLIYRGKRLVNWDPKLRTAISDLEVENRESKGSMWHIRYPLADGAKTADGKDYLVVATTRPETLLGNTGVAVNPEDPRYKDLIGKYVILPLVNRRIPIVGDEHADMEKGTGCVKITPAHDFNDYEVGKRHALPMINILTFDGDIRESAQVFDTKGNESDVYSSEIPAEFQKLERFAARKAVVAAVDALGLLEEIKPHDLTVPYGDRGGVVIEPMLTDQWYVRADVLAKPAVEAVENGDIQFVPKQYENMYFSWMRDIQDWCISRQLWWGHRIPAWYDEAGNVYVGRNEDEVRKENNLGADVVLRQDEDVLDTWFSSALWTFSTLGWPENTDALRQFHPTSVMVSGFDIIFFWIARMIMMTMHFIKDENGKPQVPFHTVYMTGLIRDDEGQKMSKSKGNVIDPLDMVDGISLPELLEKRTGNMMQPQLADKIRKRTEKQFPNGIEPHGTDALRFTLAALASTGRDINWDMKRLEGYRNFCNKLWNASRFVLMNTEGQDCGFNGGEMTLSLADRWILAEFNQTIKAYREALDSFRFDIAAGILYEFTWNQFCDWYLELTKPVMNGGTEAELRGTRHTLVTVLEGLLRLAHPIIPFITETIWQRVKVLCGITADTIMLQPFPQYDASQVDEAALADTEWLKQAIVAVRNIRAEMNIAPGKPLELLLRGCSADAERRVNENRGFLQTLARLESITVLPADDKGPVSVTKIIDGAELLIPMAGLINKEDELARLAKEVAKIEGEISRIENKLANEGFVARAPEAVIAKEREKLEGYAEAKAKLIEQQAVIAAL | – | – | slowed rate of deacylation | low levels of mischarging |
| wild-type enzyme: wild-type valyl-tRNA synthetase (ValRS) of E. coli (protein, UniProt P07118 1-951, looked up) Valine--tRNA ligase: MEKTYNPQDIEQPLYEHWEKQGYFKPNGDESQESFCIMIPPPNVTGSLHMGHAFQQTIMDTMIRYQRMQGKNTLWQVGTDHAGIATQMVVERKIAAEEGKTRHDYGREAFIDKIWEWKAESGGTITRQMRRLGNSVDWERERFTMDEGLSNAVKEVFVRLYKEDLIYRGKRLVNWDPKLRTAISDLEVENRESKGSMWHIRYPLADGAKTADGKDYLVVATTRPETLLGDTGVAVNPEDPRYKDLIGKYVILPLVNRRIPIVGDEHADMEKGTGCVKITPAHDFNDYEVGKRHALPMINILTFDGDIRESAQVFDTKGNESDVYSSEIPAEFQKLERFAARKAVVAAVDALGLLEEIKPHDLTVPYGDRGGVVIEPMLTDQWYVRADVLAKPAVEAVENGDIQFVPKQYENMYFSWMRDIQDWCISRQLWWGHRIPAWYDEAGNVYVGRNEDEVRKENNLGADVVLRQDEDVLDTWFSSALWTFSTLGWPENTDALRQFHPTSVMVSGFDIIFFWIARMIMMTMHFIKDENGKPQVPFHTVYMTGLIRDDEGQKMSKSKGNVIDPLDMVDGISLPELLEKRTGNMMQPQLADKIRKRTEKQFPNGIEPHGTDALRFTLAALASTGRDINWDMKRLEGYRNFCNKLWNASRFVLMNTEGQDCGFNGGEMTLSLADRWILAEFNQTIKAYREALDSFRFDIAAGILYEFTWNQFCDWYLELTKPVMNGGTEAELRGTRHTLVTVLEGLLRLAHPIIPFITETIWQRVKVLCGITADTIMLQPFPQYDASQVDEAALADTEWLKQAIVAVRNIRAEMNIAPGKPLELLLRGCSADAERRVNENRGFLQTLARLESITVLPADDKGPVSVTKIIDGAELLIPMAGLINKEDELARLAKEVAKIEGEISRIENKLANEGFVARAPEAVIAKEREKLEGYAEAKAKLIEQQAVIAAL | – | – | – | no detectable mischarged tRNA^Val |
